Our source for the MIC, IC50 and EC50 values is ChEMBL document CHEMBL4476873, “Substituted urea depsipeptide analogs as activators of the clpp endopeptidase” (2018).

Each structure is given as a SMILES string. ≈ marks a conversion by molar mass, not a printed value.

In test [1] the test system is Staphylococcus aureus. Kind of test: Antimicrobial activity against Staphylococcus aureus USA300 deficient in ClpP incubated overnight under aerobic condition by microbroth dilution method. The test is classed as functional. On the technique in general: Dilution methods test growth across graded concentrations, often in twofold steps.
For test [2], the system named is Vero. Nature of the test: Cytotoxicity in African green monkey Vero cells assessed as reduction in cell viability incubated for 72 hrs by cell-titer-Glo luminescent cell viability assay. The format is cell-based. The conditions noted are these: Chlorocebus sabaeus.
In test [3] the test system is Streptococcus pyogenes. Nature of the test: Antimicrobial activity against Streptococcus pyogenes ATCC 700294 incubated overnight under aerobic condition by microbroth dilution method. The test is classed as functional.
The target in test [4] is T1, ATP-dependent Clp protease proteolytic subunit (Staphylococcus aureus (strain NCTC 8325), UniProt Q2G036).
T1 sequence (Q2G036 whole entry): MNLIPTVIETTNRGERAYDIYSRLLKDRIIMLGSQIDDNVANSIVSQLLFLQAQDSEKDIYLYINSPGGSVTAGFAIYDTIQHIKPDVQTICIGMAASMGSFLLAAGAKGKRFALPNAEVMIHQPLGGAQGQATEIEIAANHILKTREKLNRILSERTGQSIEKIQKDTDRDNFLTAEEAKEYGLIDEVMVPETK
Kind of test: Displacement of ADEP2591 from Staphylococcus aureus ClpP expressed in Escherichia coli BL21 (DE3) incubated for 120 mins by fluorescence polarization assay. (Fluorescence polarisation rises when a labelled molecule tumbles more slowly, as on binding a larger partner.)

The subject of test [5] is Staphylococcus aureus. Nature of the test: Antimicrobial activity against Staphylococcus aureus NRS70 incubated overnight under aerobic condition by microbroth dilution method. The format is functional.
The test system of test [6] is Staphylococcus aureus. Kind of test: Antimicrobial activity against Staphylococcus aureus ATCC 29213 incubated overnight under aerobic condition by microbroth dilution method. The format is functional.
Test [7] has as its system Staphylococcus aureus. Nature of the test: Antimicrobial activity against Staphylococcus aureus USA300 incubated overnight under aerobic condition by microbroth dilution method. The test is classed as functional.
Test [8] concerns Streptococcus pneumoniae. Nature of the test: Antimicrobial activity against Streptococcus pneumoniae R6 incubated overnight under aerobic condition by microbroth dilution method. The test is classed as functional.
Test [9] concerns Bacillus subtilis. Nature of the test: Antimicrobial activity against Bacillus subtilis ATCC 23857 incubated overnight under aerobic condition by microbroth dilution method. The format is functional.
Test [10] concerns Enterococcus faecalis. Nature of the test: Antimicrobial activity against Enterococcus faecalis ATCC 33186 incubated overnight under aerobic condition by microbroth dilution method. The format is functional.
The target in test [11] is T1, ATP-dependent Clp protease proteolytic subunit. Nature of the test: Activation of Staphylococcus aureus ClpP using BODIPY-FL-casein as substrate incubated for 30 mins by Enz-Check protease assay.

Regarding `CCc1ccc(NC(=O)N[C@@H](Cc2cc(F)cc(F)c2)C(=O)N[C@@H]2C(=O)N3CCC[C@H]3C(=O)N(C)[C@@H]([C@H](C)O)C(=O)N[C@@H](C)C(=O)N3C[C@H](C)C[C@H]3C(=O)O[C@H]2C)cc1`, the MIC (as a rule, the lowest concentration that inhibits growth of the organism) in test [1] came to 100 µM (≈ 82.6 µg/mL). For the same compound, the IC50 – broadly, the midpoint of a concentration-inhibition curve – in [2] amounted to 24.9 µM.
Consider `C[C@H]1C[C@H]2C(=O)O[C@@H](C)[C@H](NC(=O)[C@H](Cc3cc(F)cc(F)c3)NC(=O)Nc3ccc(C(F)(F)F)cc3)C(=O)N3CCC[C@H]3C(=O)N3CCCC[C@H]3C(=O)N[C@@H](C)C(=O)N2C1`, for which, in test [3], the lowest concentration to inhibit growth (MIC) was 1.5 µM (≈ 1.29 µg/mL).
In the case of `C[C@@H]1C[C@H]2C(=O)O[C@@H](C)[C@H](NC(=O)[C@H](Cc3cc(F)cc(F)c3)NC(=O)Nc3ccc(OC(F)(F)F)cc3)C(=O)N3CCC[C@H]3C(=O)N(C)[C@@H]([C@H](C)O)C(=O)N[C@@H](C)C(=O)N2C1`, the values for the IC50 in [4] and in test [2] were 7.53 µM and 23.9 µM, respectively.
`C[C@@H]1NC(=O)[C@H](C)N(C)C(=O)[C@@H]2CCCN2C(=O)[C@@H](NC(=O)[C@H](Cc2cc(F)cc(F)c2)NC(=O)Nc2ccc(OC(F)(F)F)cc2)[C@H](C)OC(=O)[C@@H]2CCCN2C1=O`: the MIC turned out to be 100 µM (≈ 83.8 µg/mL) in [1], 0.2 µM (≈ 0.168 µg/mL) in test [5], 0.2 µM (≈ 0.168 µg/mL) in [6] and 0.2 µM (≈ 0.168 µg/mL) in test [7].
Take `Cc1ccc(NC(=O)N[C@@H](Cc2cc(F)cc(F)c2)C(=O)N[C@@H]2C(=O)N3CCC[C@H]3C(=O)N3CCOC[C@H]3C(=O)N[C@@H](C)C(=O)N3C[C@H](C)C[C@H]3C(=O)O[C@H]2C)cc1`: the MIC in [8] was 0.002 µM (≈ 0.00162 µg/mL); in test [1], over 200 µM; in [6], 0.003 µM (≈ 0.00243 µg/mL); in [3], 0.02 µM (≈ 0.0162 µg/mL).
Take `CCc1ccc(NC(=O)N[C@@H](Cc2cc(F)cc(F)c2)C(=O)N[C@@H]2C(=O)N3CCC[C@H]3C(=O)N(C)[C@@H]([C@H](C)O)C(=O)N[C@@H](C)C(=O)N3C[C@@H](C)C[C@H]3C(=O)O[C@H]2C)cc1`: the MIC in test [1] was 100 µM (≈ 82.6 µg/mL). Moreover, the IC50 in test [2] was found to be 33.8 µM.
`CN(C)[C@@H]1C(O)=C(C(N)=O)C(=O)[C@@]2(O)C(O)=C3C(=O)c4c(O)cccc4[C@@](C)(O)[C@H]3C[C@@H]12` [TETRACYCLINE]: the MIC stood at 1.6 µM (≈ 0.711 µg/mL) in test [9] and 0.05 µM (≈ 0.0222 µg/mL) in test [10].
Consider `C[C@@H]1C[C@H]2C(=O)OC[C@H](NC(=O)[C@H](Cc3ccccc3)NC(=O)Nc3ccc(OC(F)(F)F)cc3)C(=O)N3CCC[C@H]3C(=O)N3CCCC[C@H]3C(=O)N[C@@H](C)C(=O)N2C1`, for which, in test [3], the minimum inhibitory concentration (MIC) stood at 0.1 µM (≈ 0.0828 µg/mL).
Consider `Cc1ccc(NC(=O)N[C@@H](Cc2cc(F)cc(F)c2)C(=O)N[C@@H]2C(=O)N3CCC[C@H]3C(=O)N3CCCC[C@H]3C(=O)N[C@@H](C)C(=O)N3C[C@@H](C)C[C@H]3C(=O)O[C@H]2C)cc1`, for which the MIC in test [1] amounted to 100 µM (≈ 80.8 µg/mL); in test [3], 0.4 µM (≈ 0.323 µg/mL).
Turning to `NC[C@H]1O[C@H](O[C@H]2[C@H](O)[C@@H](O[C@H]3O[C@H](CO)[C@@H](O)[C@H](N)[C@H]3O)[C@H](N)C[C@@H]2N)[C@H](O)[C@@H](O)[C@@H]1O` [KANAMYCIN], the MIC stood at 1.56 µM (≈ 0.756 µg/mL) in test [6], 0.1 µM (≈ 0.0485 µg/mL) in [9] and 12.5 µM (≈ 6.06 µg/mL) in test [3].
As to `Cc1ccc(NC(=O)N[C@@H](Cc2cc(F)cc(F)c2)C(=O)N[C@@H]2C(=O)N3CCC[C@H]3C(=O)N3CCCC[C@H]3C(=O)N[C@@H](C)C(=O)N3C[C@H](C)C[C@H]3C(=O)O[C@H]2C)cc1`, the MIC in test [8] came out at 0.05 µM (≈ 0.0404 µg/mL); in test [1], 100 µM (≈ 80.8 µg/mL); in test [6] it was 0.05 µM (≈ 0.0404 µg/mL); in test [7], 0.05 µM (≈ 0.0404 µg/mL); in test [3] it was 0.2 µM (≈ 0.162 µg/mL). Moreover, the concentration for half-maximal inhibition (IC50) in test [2] stood at 40 µM.
For `C[C@H]1C[C@H]2C(=O)O[C@@H](C)[C@H](NC(=O)[C@H](Cc3cc(F)cc(F)c3)NC(=O)Nc3ccc(OC(F)(F)F)cc3)C(=O)N3CCC[C@H]3C(=O)N(C)[C@@H]([C@H](C)O)C(=O)N[C@@H](C)C(=O)N2C1`, the IC50 in test [2] turned out to be 25.4 µM.
In the case of `CCc1ccc(NC(=O)N[C@@H](Cc2cc(F)cc(F)c2)C(=O)N[C@@H]2C(=O)N3CCC[C@H]3C(=O)N(C)[C@@H](C)C(=O)N[C@@H](C)C(=O)N3CCC[C@H]3C(=O)O[C@H]2C)cc1`, the MIC came out at 100 µM (≈ 78.2 µg/mL) in test [1], 0.2 µM (≈ 0.156 µg/mL) in test [5], 0.2 µM (≈ 0.156 µg/mL) in [6] and 0.2 µM (≈ 0.156 µg/mL) in test [7].
As to `C[C@@H]1NC(=O)[C@@H]2CCCCN2C(=O)[C@@H]2CCCN2C(=O)[C@@H](NC(=O)[C@H](Cc2cc(F)cc(F)c2)NC(=O)Nc2ccc3c(c2)OCO3)[C@H](C)OC(=O)[C@@H]2CCCN2C1=O`, the MIC in [5] is 3.1 µM (≈ 2.55 µg/mL); in test [6], 3.1 µM (≈ 2.55 µg/mL); in test [7], 3.1 µM (≈ 2.55 µg/mL); in [3], under 0.1 µM.
For `C[C@H]1C[C@H]2C(=O)O[C@@H](C)[C@H](NC(=O)[C@H](Cc3cc(F)cc(F)c3)NC(=O)Nc3ccc(OC(F)(F)F)cc3)C(=O)N3CCC[C@H]3C(=O)N(C)[C@@H](C)C(=O)N[C@@H](C)C(=O)N2C1`, the MIC turned out to be 25 µM (≈ 21.3 µg/mL) in test [1]; 0.05 µM (≈ 0.0426 µg/mL) in [5]; 0.05 µM (≈ 0.0426 µg/mL) in [6]; 0.1 µM (≈ 0.0852 µg/mL) in test [7]; 0.01 µM (≈ 0.00852 µg/mL) in test [9]; 0.23 µM (≈ 0.196 µg/mL) in [3].
With `Cc1ccc(NC(=O)N[C@@H](Cc2cc(F)cc(F)c2)C(=O)N[C@@H]2C(=O)N3C[C@H](O)C[C@H]3C(=O)N(C)[C@@H](C)C(=O)N[C@@H](C)C(=O)N3C[C@@H](C)C[C@H]3C(=O)O[C@H]2C)cc1`, the EC50 in test [11] stood at 0.37 µM. This compound also registered an MIC in test [1] of over 200 µM. For the same compound, the IC50 in [2] is over 100 µM.
On to `Cc1ccc(NC(=O)N[C@@H](Cc2cc(F)cc(F)c2)C(=O)N[C@@H]2C(=O)N3CCC[C@H]3C(=O)N(C)[C@@H]([C@H](C)O)C(=O)N[C@@H](C)C(=O)N3C[C@H](C)C[C@H]3C(=O)O[C@H]2C)cc1`, for which the MIC in test [8] worked out at 0.02 µM (≈ 0.0162 µg/mL); in test [6] it was 0.05 µM (≈ 0.0406 µg/mL); in test [7], 0.1 µM (≈ 0.0812 µg/mL); in [9], 0.05 µM (≈ 0.0406 µg/mL); in test [3], 0.1 µM (≈ 0.0812 µg/mL).
